Reference: patent US20240002846A1, “COMPOSITIONS AND METHODS FOR THE DIAGNOSIS AND TREATMENT OF ITCH” (Duke University, priority 2020, published 2024)
Like-named read-outs stand apart in the source and are kept apart here.

How the values were obtained:
[1] = molecular target: T1, hTRPV4-121AAWAA125 (Homo sapiens, UniProt Q9HBA0, K121A/K125A/R122A/R124A); assay: Inside-out patch-clamp, hTRPV4-121AAWAA125; assay type: biochemical; conditions: 5 μM LPC 18:1
T1 construct: expressed in transfected cells; host or cells: HEK293
T1 sequence (Q9HBA0 whole entry K121A/R122A/R124A/K125A): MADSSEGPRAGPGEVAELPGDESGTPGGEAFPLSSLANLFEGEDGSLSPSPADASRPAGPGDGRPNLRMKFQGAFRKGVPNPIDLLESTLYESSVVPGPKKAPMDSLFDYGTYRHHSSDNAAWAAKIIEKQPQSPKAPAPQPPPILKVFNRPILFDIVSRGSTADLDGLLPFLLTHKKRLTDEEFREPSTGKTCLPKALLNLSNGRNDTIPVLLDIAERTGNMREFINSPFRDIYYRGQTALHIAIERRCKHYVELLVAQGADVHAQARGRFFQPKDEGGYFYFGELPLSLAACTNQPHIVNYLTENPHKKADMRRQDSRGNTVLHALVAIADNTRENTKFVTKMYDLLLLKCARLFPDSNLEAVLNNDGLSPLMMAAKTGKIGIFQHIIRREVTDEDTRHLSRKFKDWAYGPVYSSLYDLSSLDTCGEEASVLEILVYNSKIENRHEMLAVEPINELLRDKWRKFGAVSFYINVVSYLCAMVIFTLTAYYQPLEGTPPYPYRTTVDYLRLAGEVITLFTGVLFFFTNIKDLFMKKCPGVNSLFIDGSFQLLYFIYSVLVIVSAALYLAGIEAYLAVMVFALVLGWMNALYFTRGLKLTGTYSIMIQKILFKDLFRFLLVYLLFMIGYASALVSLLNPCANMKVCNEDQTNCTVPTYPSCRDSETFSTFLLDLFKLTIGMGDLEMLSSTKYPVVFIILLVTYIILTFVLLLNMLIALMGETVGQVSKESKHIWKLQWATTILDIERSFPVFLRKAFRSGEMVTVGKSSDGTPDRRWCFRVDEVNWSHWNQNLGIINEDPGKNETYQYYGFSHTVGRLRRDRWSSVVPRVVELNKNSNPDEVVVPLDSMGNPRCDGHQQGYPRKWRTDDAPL
Experimental: (§1) Cell culture and transfection. HEK293 cells (ATCC® CRL-1573) were cultured on poly-D-lysine coated coverslips in 24-well plate containing DMEM media with high-Glucose (Gibco, Gaithersburg, MD) supplemented with 10% fetal bovine serum (FBS, HyClone Laboratories, Logan, UT) and 100 U/mL of penicillin/streptomycin (Gibco, Gaithersburg, MD). Cell cultures were maintained with 5% of CO2 in a humidified incubator at 37° C. HEK cells were transfected with rat or human wild type or mutant TRPV4 channels with EGFP or YFP coupled to their C-termini (1.5 μg of plasmid for excised patch clamp and Ca^2+ imaging and 200 ng for single-channel experiments). […]
(§2) Electrophysiology. Currents were recorded using the inside-out configuration of the patch-clamp technique (Hamill et al. Pflugers Arch. 1981, 391, 85-100). […] Mean current values in response to GSK1016790A or LPC 18:1 were measured after channel activation had reached the steady-state (˜3 min). […] Currents were low-pass filtered at 2 kHz and sampled at 10 kHz with an EPC 10 amplifier (HEKA Elektronik) and were plotted and analyzed with Igor Pro (Wavemetrics Inc.).

[2] = molecular target: rTRPV4-R746D (Rattus norvegicus, UniProt Q9ERZ8, R746D); assay: In vitro interaction (overlay) assay LPC-TRPV4-R746D; assay type: binding; parameters: made in house; host or cells: HEK293 cells, surface protein fraction; conditions: 200 pmol per spot
Chain of rTRPV4-R746D (Q9ERZ8 whole entry R746D): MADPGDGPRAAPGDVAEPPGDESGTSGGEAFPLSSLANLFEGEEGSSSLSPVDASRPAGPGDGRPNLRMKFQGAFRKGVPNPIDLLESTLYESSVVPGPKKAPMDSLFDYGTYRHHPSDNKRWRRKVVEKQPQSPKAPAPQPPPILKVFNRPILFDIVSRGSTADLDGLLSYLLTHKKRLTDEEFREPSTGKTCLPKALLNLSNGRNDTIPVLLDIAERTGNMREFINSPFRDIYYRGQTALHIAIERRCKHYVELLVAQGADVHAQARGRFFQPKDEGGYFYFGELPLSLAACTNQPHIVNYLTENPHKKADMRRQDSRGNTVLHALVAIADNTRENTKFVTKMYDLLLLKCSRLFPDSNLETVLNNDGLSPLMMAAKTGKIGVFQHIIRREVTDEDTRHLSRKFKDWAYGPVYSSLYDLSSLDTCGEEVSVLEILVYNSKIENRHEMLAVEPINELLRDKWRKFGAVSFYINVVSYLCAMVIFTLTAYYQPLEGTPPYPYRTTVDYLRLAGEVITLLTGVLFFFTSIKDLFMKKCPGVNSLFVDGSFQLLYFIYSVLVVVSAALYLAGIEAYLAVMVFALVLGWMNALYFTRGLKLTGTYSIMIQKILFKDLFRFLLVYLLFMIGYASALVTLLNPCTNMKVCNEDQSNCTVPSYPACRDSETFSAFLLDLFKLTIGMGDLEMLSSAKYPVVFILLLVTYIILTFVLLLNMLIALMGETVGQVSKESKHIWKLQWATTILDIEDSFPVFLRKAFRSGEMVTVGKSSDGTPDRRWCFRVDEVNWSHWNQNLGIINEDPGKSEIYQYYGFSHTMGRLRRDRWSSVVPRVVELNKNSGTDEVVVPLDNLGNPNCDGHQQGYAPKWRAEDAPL
Experimental: In vitro interaction assays of LPC-TRPV4. Surface proteins were obtained from HEK293 cells transiently expressing rTRPV4-EGFP channels using the Pierce Cell Surface Isolation kit (Pierce Biotechnology, Rockford, IL) following the manufacturer's instructions. Overlay assays were performed as previously described (Morales-Lazaro et al. Nat. Commun. 2016, 7, 13092). In brief, LPC 18:1 was spotted (200 pmol per spot) onto a nitrocellulose membrane (GE Healthcare, Pittsburgh, PA) and then blocked with 1% fatty acid-free BSA (Calbiochem) and 6% fat-free dried milk in PBS. Membranes were then incubated with the surface protein solutions and exposed to anti-GFP antibody (Sigma, St. Louis, MO) diluted 1:1000 in 3% fat-free dried milk in PBST (with 0.1% of Tween). Membranes were incubated with horseradish peroxidase-conjugated secondary anti-rabbit antibody (Cell Signaling Technology) diluted 1:7500 in 6% fat-free dried milk in PBST. The binding of rTRPV4-EGFP and TRPV4-R746D-EGFP to the lipid-containing spots was visualized by chemiluminescence by exposing the blot for 15 min (Amersham Bioscience, Piscataway, NJ). Semi-quantitative densitometric analysis was done using ImageJ (NIH) and expressed as relative protein levels of TRPV4 bound to each spot.

[3] = molecular target: T2, hTRPV4-R746G (Homo sapiens, UniProt Q9HBA0, R746G); assay: Inside-out patch-clamp, hTRPV4-R746G; assay type: biochemical; conditions: 5 μM LPC 18:1
T2 construct: expressed in transfected cells; host or cells: HEK293
T2 sequence (Q9HBA0 whole entry R746G): as the sequence (Q9HBA0 whole entry K121A/R122A/R124A/K125A) above, with A121K, A122R, A124R, A125K, R746G counted along it
Experimental: as §1, §2

[4] = tested on: rat TRPV4 mutations (R746C, R746G, R746D, K754G, R757G, R774G, and W776G); assay: Ca2+ imaging in HEK cells transfected with rat TRPV4 mutations; assay type: cell-based
Experimental: Cell culture and transfection. HEK293 cells (ATCC® CRL-1573) were cultured on poly-D-lysine coated coverslips in 24-well plate containing DMEM media with high-Glucose (Gibco, Gaithersburg, MD) supplemented with 10% fetal bovine serum (FBS, HyClone Laboratories, Logan, UT) and 100 U/mL of penicillin/streptomycin (Gibco, Gaithersburg, MD). Cell cultures were maintained with 5% of CO2 in a humidified incubator at 37° C. HEK cells were transfected with rat or human wild type or mutant TRPV4 channels with EGFP or YFP coupled to their C-termini (1.5 μg of plasmid for excised patch clamp and Ca^2+ imaging and 200 ng for single-channel experiments). The jetPEI™ Polyplus transfection reagent (Polyplus Transfection, New York, NY) for electrophysiology or Lipofectamine™ 2000 Reagent (Invitrogen, Waltham, MA) for Ca^2+ imaging were used for transfections per manufacturer's instructions as previously described (Chen et al. Pain 2014, 155, 2662-2672; Morales-Lazaro et al. Nat. Commun. 2016, 7, 13092). To investigate whether miR-146a can directly activate TRPV1 channels or indirectly via TLRs, HEK293 cells were transfected with rTRPV1 or co-transfected rTRPV1 with rTLR7, rTLR2, or rTLR6 (Addgene, Watertown, MA) for Ca^2+ imaging assay. Control cells were transfected with GFP or YFP.
Site-directed mutagenesis of TRPV4 channels. TRPV4 sequences of multiple species were aligned using Clustal Omega program. Site-directed mutagenesis to generate point mutations in rat and human TRPV4 channels were carried out using Phusion DNA polymerase enzyme (Salazar et al. Nat. Struct. Mol. Biol. 2009, 16, 704-710; Rosenbaum et al. Neuron 2002, 33, 703-713; Hsieh et al. Methods Mol. Biol. 2013, 978, 173-186), with final sequencing to check for presence of the induced mutation. We introduced the following mutations into the rTRPV4 or hTRPV4 channel: R746C, R746G, R746D, K754G, R757G, R774G, and W776G.
In vitro and ex vivo Ca^2+ imaging. […] Ratios of emissions were acquired at 0.5 Hz. ΔR/R0 was determined as the fraction of the increase of a given ratio over baseline ratio divided by baseline ratio. […]

Question: With LPC 18:1 as the substance, how does the “average activation of currents, normalized to 1 μM GSK101” value [1] read?
Answer: 43±4%

Question: What about the “binding of LPC 18:1 to rTRPV4-R746D relative to rTRPV4” value [2] of the same substance?
Answer: significantly reduced binding

Question: And the “binding of LPC 18:1 to rTRPV4-R746D relative to rTRPV4” value ([2]; listed as LPC (18:1))?
Answer: significant reduction of this interaction

Question: What about the “average activation of currents, normalized to 1 μM GSK101” value [3] of the same substance?
Answer: 13±4%

Question: And the “Ca2+ signal induced by 10 μM LPC 18:1 in TRPV4 mutants vs rTRPV4” value [4]?
Answer: drastically reduced

Question: What about the “Ca2+ signal induced by 10 μM LPC 18:1 in TRPV4 mutants vs rTRPV4” value ([4]; listed as LPC (18:1)) of the same substance?
Answer: significantly reduced potency
